Assay results taken from patent publication US20260176260A1, “DUAL RAF AND TUBULIN INHIBITORS AND METHODS OF USE THEREOF” (Deciphera Pharmaceuticals, LLC, priority 2023, published 2026).
pIC50: −log10 of the molar value.

Assays:
B-Raf kinase = target: T1, B-Raf kinase (Homo sapiens, UniProt P15056); assay: Biochemical assay for B-Raf (coupled pyruvate kinase/lactate dehydrogenase); conditions: Table 1, inhibition of biochemical activity; read-out: BRAF
T1 construct: purchased Sigma

C-Raf kinase = target: T2, C-Raf kinase (Homo sapiens, UniProt P04049, Y340D/Y341D); assay: Biochemical assay for C-Raf (coupled pyruvate kinase/lactate dehydrogenase); conditions: Table 1, inhibition of biochemical activity; read-out: CRAF
T2 construct: C-Raf residues 306-end; Y340D, Y341D with N-; purchased Sigma
T2 sequence (P04049 307-648 Y340D/Y341D): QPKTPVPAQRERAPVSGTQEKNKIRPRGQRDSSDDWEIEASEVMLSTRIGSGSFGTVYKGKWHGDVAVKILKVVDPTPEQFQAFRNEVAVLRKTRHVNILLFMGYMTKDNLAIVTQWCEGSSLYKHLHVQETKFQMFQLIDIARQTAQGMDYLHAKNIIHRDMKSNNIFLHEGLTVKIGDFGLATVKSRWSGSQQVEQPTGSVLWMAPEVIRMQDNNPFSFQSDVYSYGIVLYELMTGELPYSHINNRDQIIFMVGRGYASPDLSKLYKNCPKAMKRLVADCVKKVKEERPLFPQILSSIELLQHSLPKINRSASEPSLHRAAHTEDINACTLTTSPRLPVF

MiaPaca-2 cells = assay: MiaPaca-2 cell proliferation assay (resazurin); type: cell-based; conditions: Homo sapiens, MIA PaCa-2; Table 2, inhibition of cell proliferation; read-out: MiaPaca-2
Description: MiaPaca-2 cells (catalog #CRL-1420) are obtained from the American Type Culture Collect (ATTC, Manassas, VA). Briefly, cells were grown in DMVEM supplemented with […] fetal bovine serum (Invitrogen, Carlsbad, CA), 2.5% New Zealand sourced horse serum and 1% Penicillin/Streptomycin/L-Glutamine at 37° C., […], and […]. Cells are expanded until reaching […] at which point they are sub-cultured or harvested for assay use. For assays completed in 96-well plates, a serial dilution of test compound is dispensed into a 96-well black clear bottom plate in triplicate. Three thousand cells are added per well in 200 μL complete growth medium in the 96-well plate. Plates are incubated for 67 to 72 h at 37° C., 5% CO2, and 95% humidity. At the end of the incubation, 40 μL of a […] solution of resazurin (Sigma, St. Louis, MO) in PBS is added to each well of the plate and plates are incubated for an additional 5 to 6 h at 37° C., 5% CO2, and 95% humidity. For 384-well assays, a threefold, 8-point serial dilution of compound was spotted column wise into a 384 well black, clear bottom, tissue culture treated plate using the Beckman Coulter Echo 650. Likewise, a threefold, 8-point serial dilution of cobimetinib was spotted row wise into the 384 well black, clear bottom plate containing compound. DMSO concentration was constant across all wells at 0.4%. Seven hundred fifty cells are added per well in 50 μL complete growth medium in each 384-well plate. Plates are incubated for 67 to 72 h at 37° C., 5% CO2, and 95% humidity. At the end of the incubation, 10 μL of a 440 μM solution of resazurin (Sigma, St. Louis, MO) in PBS is added to each well of the plate and plates are incubated for an additional 4 to 6 h at 37° C., 5% CO2, and 95% humidity. Plates are read on a Synergy2 or equivalent reader (Biotek, Winooski VT) using an excitation of 540 nm and an emission of 600 nm. Data is analyzed using Prism software (Graphpad, San Diego, CA) to calculate IC50 values.

HCT-116 cells = assay: HCT-116 cell proliferation assay (resazurin); type: cell-based; conditions: Homo sapiens; Table 2, inhibition of cell proliferation; read-out: HCT-116
Description: HCT-116 cells (catalog #CCL-247) are obtained from the American Type Culture Collect (ATCC, Manassas, VA). Briefly, cells are grown in McCoy's 5A supplemented with 10% characterized fetal bovine serum (Invitrogen, Carlsbad, CA) and 1% Penicillin/Streptomycin/L-Glutamine at 37° C., 5% CO2, and 95% humidity. Cells are expanded until reaching 70-95% confluency at which point they are sub-cultured or harvested for assay use. A serial dilution of test compound is dispensed into a 384-well black clear bottom plate in triplicate. 375 cells are added per well in 50 μL complete growth medium in the 384-well plate. Plates are incubated for 67 to 72 h at 37° C., 5% CO2, and 95% humidity. At the end of the incubation, 40 μL of a […] solution of resazurin (Sigma, St. Louis, MO) in PBS is added to each well of the plate and plates are incubated for an additional 4 to 5 h at 37° C., 5% CO2, and 95% humidity. Plates are read on a Synergy2 or equivalent reader (Biotek, Winooski, VT) using an excitation of 540 nm and an emission of 600 nm. Data is analyzed using Prism software (Graphpad, San Diego, CA) to calculate IC50 values.

HPAF-II cells = assay: HPAF-II cell proliferation assay (resazurin); type: cell-based; conditions: Homo sapiens; Table 2, inhibition of cell proliferation; read-out: HPAF-II
Description: (§1) HPAF-II cells (catalog #CRL-1997) are obtained from the American Type Culture Collect (ATCC, Manassas, VA). Briefly, cells are grown in Minimum Essential Media supplemented with 10% characterized fetal bovine serum (Invitrogen, Carlsbad, CA) and 1% Penicillin/Streptomycin/L-Glutamine at 37° C., 5% CO2, and 95% humidity. Cells are expanded until reaching 70-95% confluency at which point they are sub-cultured or harvested for assay use. A serial dilution of test compound is dispensed into a 384-well black clear bottom plate in triplicate. 750 cells are added per well in 50 μL complete growth medium in the 384-well plate. Plates are incubated for 115 to 120 h at 37° C., 5% CO2, and 95% humidity. At the end of the incubation, 40 μL of a […] solution of resazurin (Sigma, St. Louis, MO) in PBS is added to each well of the plate and plates are incubated for an additional 18 to 24 h at 37° C., 5% CO2, and 95% humidity. Plates are read on a Synergy2 or equivalent reader (Biotek, Winooski, VT) using an excitation of 540 nm and an emission of 600 nm. Data is analyzed using Prism software (Graphpad, San Diego, CA) to calculate IC50 values.

Pa16c cells = assay: Pa16c cell proliferation assay (resazurin); type: cell-based; conditions: Table 2, inhibition of cell proliferation
Description: as §1, with “Pa16c” for “HPAF-II”, “cells” for “cells (catalog #CRL-1997)”, “Dr. Channing Der, University of North Carolina at Chapel Hill.” for “the American Type Culture Collect (ATCC, Manassas, VA).”, “Dulbecco's Modified Eagle Medium” for “Minimum Essential Media”, “67” for “115”, “72” for “120”

T1 sequence (P15056 416-766): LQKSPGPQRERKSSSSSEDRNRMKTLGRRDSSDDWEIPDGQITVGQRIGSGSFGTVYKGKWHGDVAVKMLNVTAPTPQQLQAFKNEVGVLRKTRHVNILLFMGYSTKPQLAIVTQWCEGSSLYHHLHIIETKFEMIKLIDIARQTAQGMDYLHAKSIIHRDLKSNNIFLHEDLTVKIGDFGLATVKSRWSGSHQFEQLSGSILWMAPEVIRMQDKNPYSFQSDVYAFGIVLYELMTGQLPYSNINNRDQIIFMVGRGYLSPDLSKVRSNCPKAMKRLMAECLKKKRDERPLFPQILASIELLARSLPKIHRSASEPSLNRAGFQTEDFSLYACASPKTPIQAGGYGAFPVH

| Structure (SMILES) | pIC50 (B-Raf kinase) | pIC50 (C-Raf kinase) | pIC50 (MiaPaca-2 cells) | pIC50 (HCT-116 cells) | pIC50 (HPAF-II cells) | pIC50 (Pa16c cells) |
| --- | --- | --- | --- | --- | --- | --- |
| CNC(=O)c1cc(-c2nc(NCCO)cc(-c3cc(NC(=O)c4cc(C(F)(F)F)cnn4)ccc3C)n2)ccn1 [Example 23] | > 7.00 | > 7.00 | 5.00 to 6.00 | 6.00 to 6.30 | 5.00 to 6.00 | 5.00 to 6.00 |
| CNC(=O)c1cc(-c2cc(-c3cc(NC(=O)c4cc(C(F)(F)F)cnn4)ccc3C)nc(N[C@H](C)CO)n2)ccn1 [Example 25] | > 7.00 | > 7.00 | 6.30 to 7.00 | 6.30 to 7.00 | 6.30 to 7.00 | 5.00 to 6.00 |
| CNC(=O)c1cc(-c2nc(N[C@H](C)CO)cc(-c3cc(NC(=O)c4cc(C(F)(F)F)cnn4)ccc3C)n2)ccn1 [Example 28] | > 7.00 | > 7.00 | 5.00 to 6.00 | 5.00 to 6.00 | 5.00 to 6.00 | 5.00 to 6.00 |
| CNC(=O)c1cc(-c2cncc(-c3cc(NC(=O)c4cc(C(C)(F)F)cnn4)ccc3C)c2)ccn1 [Example 30] | > 7.00 | > 7.00 | 5.00 to 6.00 | 6.00 to 6.30 | 5.00 to 6.00 | 5.00 to 6.00 |
| CNC(=O)c1cc(-c2cc(-c3cc(NC(=O)c4cc(C(C)(F)F)cnn4)ccc3C)ccn2)ccn1 [Example 31] | > 7.00 | > 7.00 | 6.30 to 7.00 | 6.30 to 7.00 | 6.30 to 7.00 | 6.30 to 7.00 |
| CNC(=O)c1cc(-c2cc(-c3cc(NC(=O)c4cc(C(F)(F)F)cnn4)ccc3C)cc(OCCO)n2)ccn1 [Example 35] | > 7.00 | > 7.00 | 6.30 to 7.00 | 6.30 to 7.00 | 6.30 to 7.00 | 6.30 to 7.00 |
| CNC(=O)c1cc(-c2cc(-c3cc(NC(=O)c4cc(Cl)cnn4)ccc3C)ccn2)ccn1 [Example 36] | 6.30 to 7.00 | > 7.00 | 6.00 to 6.30 | 6.00 to 6.30 | 5.00 to 6.00 | 5.00 to 6.00 |
| CNC(=O)c1cc(-c2cc(-c3cc(NC(=O)c4cc(C(C)(F)F)cnn4)ccc3C)cc(N[C@H](C)CO)n2)ccn1 [Example 38] | > 7.00 | > 7.00 | 6.30 to 7.00 | 6.30 to 7.00 | 6.30 to 7.00 | 6.30 to 7.00 |
| CNC(=O)c1cc(-c2cc(-c3cc(NC(=O)c4cnc(C(F)(F)F)nc4)ccc3C)ccn2)ccn1 [Example 41] | 5.00 to 6.00 | 5.00 to 6.00 | 6.00 to 6.30 | 6.30 to 7.00 | 6.30 to 7.00 | 6.30 to 7.00 |
| CNC(=O)c1cc(-c2cc(-c3cc(NC(=O)c4cc(C(C)(F)F)cnn4)ccc3C)cc(NCCO)n2)ccn1 [Example 42] | > 7.00 | > 7.00 | > 7.00 | > 7.00 | 6.30 to 7.00 | 6.30 to 7.00 |
| CNC(=O)c1cc(-c2cc(-c3cc(NC(=O)c4cc(C(C)(F)F)cnn4)ccc3C)cc(OCCO)n2)ccn1 [Example 43] | > 7.00 | > 7.00 | 6.00 to 6.30 | 6.30 to 7.00 | 6.30 to 7.00 | 6.30 to 7.00 |
| CNC(=O)c1cc(-c2cc(-c3cc(NC(=O)c4ccc(C(F)(F)F)nc4)ccc3C)cc(N[C@H](C)CO)n2)ccn1 [Example 44] | 6.30 to 7.00 | 6.30 to 7.00 | 5.00 to 6.00 | 5.00 to 6.00 | 5.00 to 6.00 | 5.00 to 6.00 |
| CNC(=O)c1cc(-c2cc(-c3cc(NC(=O)c4cnc(C(F)(F)F)nc4)ccc3C)cc(N[C@H](C)CO)n2)ccn1 [Example 45] | 6.30 to 7.00 | 6.30 to 7.00 | 5.00 to 6.00 | 5.00 to 6.00 | 5.00 to 6.00 | 5.00 to 6.00 |

More lines, main results first:

| pIC50 (B-Raf kinase) | pIC50 (C-Raf kinase) | pIC50 (MiaPaca-2 cells) | pIC50 (HCT-116 cells) | Structure (SMILES) | pIC50 (HPAF-II cells) | pIC50 (Pa16c cells) |
| --- | --- | --- | --- | --- | --- | --- |
| > 7.00 | > 7.00 | 5.00 to 6.00 | 5.00 to 6.00 | CNC(=O)c1cc(-c2cncc(-c3cc(NC(=O)c4cc(C5CC5)cnn4)ccc3C)c2)ncn1 [Example 24] | 5.00 to 6.00 | 5.00 to 6.00 |
| > 7.00 | > 7.00 | 6.30 to 7.00 | > 7.00 | CNC(=O)c1cc(-c2cc(-c3cc(NC(=O)c4cc(C(F)(F)F)cnn4)ccc3C)cc(N[C@H](C)CO)n2)ccn1 [Example 29] | 6.30 to 7.00 | 6.30 to 7.00 |
| > 7.00 | > 7.00 | 6.30 to 7.00 | 6.30 to 7.00 | CNC(=O)c1cc(-c2cc(-c3cc(NC(=O)c4cc(C5CC5)cnn4)ccc3C)cc(N[C@H](C)CO)n2)ccn1 [Example 32] | 6.30 to 7.00 | 6.30 to 7.00 |
| 6.30 to 7.00 | > 7.00 | 5.00 to 6.00 | 5.00 to 6.00 | CNC(=O)c1cc(-c2cc(NCCO)nc(-c3cc(NC(=O)c4cc(C(F)(F)F)cnn4)ccc3C)n2)ccn1 [Example 33] | 5.00 to 6.00 | 5.00 to 6.00 |
| > 7.00 | > 7.00 | 6.00 to 6.30 | 6.30 to 7.00 | CNC(=O)c1cc(-c2cc(-c3cc(NC(=O)c4cc(C5CC5)cnn4)ccc3C)cc(OCCO)n2)ccn1 [Example 34] | 6.00 to 6.30 | 6.30 to 7.00 |
| 5.00 to 6.00 | 5.00 to 6.00 | 5.00 to 6.00 | 5.00 to 6.00 | CCc1ccc(NC(=O)c2cc(C(F)(F)F)cnn2)cc1-c1ccnc(-c2ccnc(C(=O)NC)c2)c1 [Example 37] | 5.00 to 6.00 | 5.00 to 6.00 |
| 6.30 to 7.00 | 6.30 to 7.00 | 5.00 to 6.00 | 5.00 to 6.00 | CNC(=O)c1cc(-c2cc(N[C@H](C)CO)nc(-c3cc(NC(=O)c4cc(C(F)(F)F)cnn4)ccc3C)n2)ccn1 [Example 39] | 5.00 to 6.00 | 5.00 to 6.00 |
